From publication PMC9104798, “Plant Alkaloid Tetrandrine Is a Nuclear Receptor 4A1 Antagonist and Inhibits Panc-1 Cell Growth In Vitro and In Vivo” (International Journal of Molecular Sciences, 2022)

Target: nuclear receptor 4A1 (NR4A1) (Homo sapiens, UniProt P22736)
Assay: tryptophan fluorescence quenching with NR4A1 LBD ([…])
Type: binding

nuclear receptor 4A1 (NR4A1), sequence (P22736 351-598 limits assumed): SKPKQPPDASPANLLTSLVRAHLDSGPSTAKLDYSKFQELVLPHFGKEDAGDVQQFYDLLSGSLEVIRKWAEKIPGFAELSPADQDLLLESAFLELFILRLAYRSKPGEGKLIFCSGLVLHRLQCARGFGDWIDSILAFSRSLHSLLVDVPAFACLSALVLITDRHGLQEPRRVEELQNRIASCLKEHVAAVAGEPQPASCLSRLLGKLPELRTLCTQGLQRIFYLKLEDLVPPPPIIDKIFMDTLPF

Kd: 10.6 µM
Structure (SMILES): COc1ccc2cc1Oc1ccc(cc1)C[C@H]1c3cc(c(OC)cc3CCN1C)Oc1c(OC)c(OC)cc3c1[C@H](C2)N(C)CC3 [TTD, tetrandrine]
